Laboratory results published in patent US9708286B2, “Ingenol-3-acylates III and ingenol-3-carbamates” (LEO Laboratories Limited, priority 2010, dated 2017).

Tests used:
[1] = tested on: PMN's (polymorphonuclear leukocytes); assay: Neutrophil oxidative burst; format: cell-based; conditions: Leukocyte, 40 min, read-out: Neutrophil oxidative burst Rel EC50 range, PMN from buffy coats, 40 min at RT, hydroethidine fluorescence; normalized to 5×10^−7 M PEP0005
Protocol: PMN's (polymorphonuclear leukocytes) were isolated and purified from fresh buffy coats by sequential sedimentation, density centrifugation and lysis of contaminating erythrocytes. Buffy coats were incubated with 2% methocel for 30-45 min to differentially sediment red blood cells. The leukocyte-rich supernatant was transferred to lymphoprep tubes to remove mononuclear cells by density centrifugation (400×g, 30 min). The pellet was resuspended and any remaining erythrocytes lysed using 0.2% NaCl for 30 sec before restoring isotonicity by the addition of 1.2% NaCl. This step was repeated until the cell pellet appears relatively free of red blood cells. Cells were resuspended in DPBS (Dulbecco's Phosphate Buffered Saline) (w.o. Ca^2+, Mg^2+) and the concentration adjusted to 1.4×10^6 cells/ml in HBSS (Hanks Balanced Salt solution) (w Ca^2+, Mg^2±) containing 0.1% BSA (Bovine Serum Albumin) and 5 mM glucose just prior to assay initiation. Titrated reference and test compounds were pre-mixed with HE (Hydroethidine) (10 μM final assay concentration) before addition to 96-well plates containing 2.5×10^5 cells. Following 40 min incubation at RT, changes in the respiratory burst was estimated by measuring fluorescence at 579 nm (excitation: 485 nm) using an Envision plate reader.
Test compound titration curves were fitted to a four-parameter sigmoidal curve after normalizing the effect of the test compound to the effect of the positive control (5×10^−7 M PEP0005). Rel EC50 denotes the concentration of test compound producing an effect that is midway between the fitted top and bottom. Abs EC50 is the concentration of test compound that provokes a response corresponding to 50% of the maximal effect associated with the positive control (5×10^−7 M PEP0005).

HeLa cells = assay: Necrosis assay; format: cell-based; conditions: Homo sapiens, HeLa, 0.5 h, read-out: HeLa necrosis EC50 range
Protocol: HeLa cells (ATCC CCL-002) were grown in minimal essential medium (Invitrogen catalog no. 42360) containing 10% fetal bovine serum, 100 IU/ml penicillin and 100 μg/ml streptomycin. 4,000-6,000 cells were seeded into 96-well black ViewPlates-plates, clear bottom, (Perkin Elmer) in 100 μl medium and incubated overnight. Compounds were dissolved and pre-diluted in DMSO in 96-well polypropylene plates (Greiner) in a concentration range of 15 μM to 600 μM. At the time of the experiment cell plates were placed on heating blocks at 37° C., medium was removed and 40 μl fresh, pre-warmed medium was added per well. Cells were incubated for 15 min before addition of compounds. In parallel, 3 μl of compounds were diluted with 197 μl growth medium on a Tecan freedom-EVO pipetting station using 250 μl/s pipetting speed, in order to ensure effective mixing of the highly concentrated compound solutions with the aqueous phase. These pre-dilution plates were then equilibrated on heating blocks at 37° C. for 10 min. 80 μl pre-diluted compound were transferred manually to the corresponding wells containing HeLa cells yielding compound concentrations of 10 μM to 400 μM. Control conditions were 1% DMSO in growth medium (100% viability) and 400 μM ingenol mebutate in growth medium (0% viability). Plates were incubated on the heating blocks at 37° C. for 30 min. At the end of the incubation 10 μl PrestoBlue reagent (Invitrogen) were added to each well, plates were sealed with black seal, followed by incubation at 37° C. for 10 min with gentle shaking (150 rpm). Subsequently, plates were placed at room temperature for 20-30 min. Plates were read immediately after on an Envision Fluorescence reader (Perkin Elmer) with excitation at 535 nm and emission at 630 nm. Test compound titration curves were fitted to a four-parameter sigmoidal curve after normalizing the effect of the test compound to the effect of the positive control (4 10^−4 M PEP0005/ingenol mebutate). AbsEC50 denotes the concentration of test compound producing 50% effect.

Row | Compound | EC50 [1] [nM] | EC50 (HeLa cells) [nM]
1 | CC1=C[C@]23C(=O)[C@@H](C=C(CO)[C@@H](O)[C@]2(O)[C@H]1OC(=O)C12CCC(C)(C(=O)O1)C2(C)C)[C@H]1[C@@H](C[C@H]3C)C1(C)C [Compound 503, Ingenol 3-(1S-camphanate)] | 20 to 100 | 
2 | CC1=C[C@]23C(=O)[C@@H](C=C(CO)[C@@H](O)[C@]2(O)[C@H]1OC(=O)c1cc(-c2ccccc2)on1)[C@H]1[C@@H](C[C@H]3C)C1(C)C [Compound 511, Ingenol 3-(5-phenylisoxazole-3-carboxylate)] | 20 to 100 | < 150000
3 | CC1=C[C@]23C(=O)[C@@H](C=C(CO)[C@@H](O)[C@]2(O)[C@H]1OC(=O)c1nccc2ccccc12)[C@H]1[C@@H](C[C@H]3C)C1(C)C [Compound 512, Ingenol 3-(isoquinoline-1-carboxylate)] | 20 to 100 | < 150000
4 | CC1=C[C@]23C(=O)[C@@H](C=C(CO)[C@@H](O)[C@]2(O)[C@H]1OC(=O)c1ccnc2ccccc12)[C@H]1[C@@H](C[C@H]3C)C1(C)C [Compound 513, Ingenol 3-(quinoline-4-carboxylate)] | < 20 | < 150000
5 | CC1=C[C@]23C(=O)[C@@H](C=C(CO)[C@@H](O)[C@]2(O)[C@H]1OC(=O)c1cncn1-c1ccccc1)[C@H]1[C@@H](C[C@H]3C)C1(C)C [Compound 515, Ingenol 3-(3-phenylimidazole-4-carboxylate)] | < 20 | < 150000
6 | CC1=C[C@]23C(=O)[C@@H](C=C(CO)[C@@H](O)[C@]2(O)[C@H]1OC(=O)c1ncccc1Br)[C@H]1[C@@H](C[C@H]3C)C1(C)C [Compound 524, Ingenol 3-(3-bromopyridine-2-carboxylate)] | 20 to 100 | 150000 to 350000
7 | CC1=C[C@]23C(=O)[C@@H](C=C(CO)[C@@H](O)[C@]2(O)[C@H]1OC(=O)c1c(C)nc2ccccn12)[C@H]1[C@@H](C[C@H]3C)C1(C)C [Compound 535, Ingenol 3-(2-methylimidazo[1,2-a]pyridine-3-carboxylate)] | < 20 | 150000 to 350000
8 | CCn1c(C)cc(C)c1C(=O)O[C@H]1C(C)=C[C@]23C(=O)[C@@H](C=C(CO)[C@@H](O)[C@]12O)[C@H]1[C@@H](C[C@H]3C)C1(C)C [Compound 543, Ingenol 3-(1-ethyl-3,5-dimethylpyrrole-2-carboxylate)] | < 20 | < 150000
9 | CC1=C[C@]23C(=O)[C@@H](C=C(CO)[C@@H](O)[C@]2(O)[C@H]1OC(=O)[C@@H]1CCCN1c1ccccc1)[C@H]1[C@@H](C[C@H]3C)C1(C)C [Compound 545, Ingenol 3-((2S)-1-phenylpyrrolidine-2-carboxylate)] | 20 to 100 | 150000 to 350000
10 | CC1=C[C@]23C(=O)[C@@H](C=C(CO)[C@@H](O)[C@]2(O)[C@H]1OC(=O)c1c(C)nn(CC2CCOCC2)c1C)[C@H]1[C@@H](C[C@H]3C)C1(C)C [Compound 561, Ingenol 3-(3,5-dimethyl-1-(tetrahydropyran-4-ylmethyl)pyrazole-4-carboxylate)] | 20 to 100 | 150000 to 350000
11 | CC1=C[C@]23C(=O)[C@@H](C=C(CO)[C@@H](O)[C@]2(O)[C@H]1OC(=O)c1sc(=O)[nH]c1C)[C@H]1[C@@H](C[C@H]3C)C1(C)C [Compound 562, Ingenol 3-(4-methyl-2-oxo-3H-thiazole-5-carboxylate)] | 20 to 100 | > 350000
12 | CC1=C[C@]23C(=O)[C@@H](C=C(CO)[C@@H](O)[C@]2(O)[C@H]1OC(=O)c1noc(C)c1C)[C@H]1[C@@H](C[C@H]3C)C1(C)C [Compound 569, Ingenol 3-(4,5-dimethylisoxazole-3-carboxylate)] | 20 to 100 | 150000 to 350000
13 | CCNC(=O)O[C@H]1C(C)=C[C@]23C(=O)[C@@H](C=C(CO)[C@@H](O)[C@]12O)[C@H]1[C@@H](C[C@H]3C)C1(C)C [Compound 701, Ingenol 3-(N-ethyl-carbamate)] | 20 to 100 | 
14 | CC1=C[C@]23C(=O)[C@@H](C=C(CO)[C@@H](O)[C@]2(O)[C@H]1OC(=O)N(C)C(C)CC#N)[C@H]1[C@@H](C[C@H]3C)C1(C)C (stereo partly shown) [Compound 715, Ingenol 3-(N-(2-cyano-1-methyl-ethyl)-N-methyl-carbamate)] | > 100 | > 350000
15 | CC1=C[C@]23C(=O)[C@@H](C=C(CO)[C@@H](O)[C@]2(O)[C@H]1OC(=O)N(C)c1cc(C)nn1C)[C@H]1[C@@H](C[C@H]3C)C1(C)C [Compound 719, Ingenol 3-(N-(2,5-dimethylpyrazol-3-yl)-N-methyl-carbamate)] | > 100 | > 350000
16 | CC1=C[C@]23C(=O)[C@@H](C=C(CO)[C@@H](O)[C@]2(O)[C@H]1OC(=O)N1CCC(=O)c2ccccc21)[C@H]1[C@@H](C[C@H]3C)C1(C)C [Compound 725, Ingenol 3-(4-oxo-2,3-dihydroquinoline-1-carboxylate)] | < 20 | 150000 to 350000
17 | CC1=C[C@]23C(=O)[C@@H](C=C(CO)[C@@H](O)[C@]2(O)[C@H]1OC(=O)N(C)c1ccc(F)cc1)[C@H]1[C@@H](C[C@H]3C)C1(C)C [Compound 730, Ingenol 3-(N-(4-fluoro-phenyl)-N-methyl-carbamate)] |  | 150000 to 350000
18 | COc1ccccc1N(C)C(=O)O[C@H]1C(C)=C[C@]23C(=O)[C@@H](C=C(CO)[C@@H](O)[C@]12O)[C@H]1[C@@H](C[C@H]3C)C1(C)C [Compound 731, Ingenol 3-(N-methyl-N-(2-methoxy-phenyl)-carbamate)] | 20 to 100 | 150000 to 350000
19 | CC1=C[C@]23C(=O)[C@@H](C=C(CO)[C@@H](O)[C@]2(O)[C@H]1OC(=O)N1CC(=O)Nc2ccccc21)[C@H]1[C@@H](C[C@H]3C)C1(C)C [Compound 733, Ingenol 3-(3-oxo-2,4-dihydroquinoxaline-1-carboxylate)] | > 100 | 150000 to 350000
20 | CC1=C[C@]23C(=O)[C@@H](C=C(CO)[C@@H](O)[C@]2(O)[C@H]1OC(=O)N1CCCC1C(F)(F)F)[C@H]1[C@@H](C[C@H]3C)C1(C)C (stereo partly shown) [Compound 735, Ingenol 3-(2-trifluoromethyl-pyrrolidine-1-carboxylate)] | < 20 | 150000 to 350000
21 | CC1=C[C@]23C(=O)[C@@H](C=C(CO)[C@@H](O)[C@]2(O)[C@H]1OC(=O)N(C)C1CCN(C(=O)OC(C)(C)C)CC1)[C@H]1[C@@H](C[C@H]3C)C1(C)C [Compound 742, Ingenol 3-(N-methyl-N—(N-(tert-butyloxycarbonyl)-4-piperidyl)-carbamate)] | 20 to 100 | 150000 to 350000
22 | CC1=C[C@]23C(=O)[C@@H](C=C(CO)[C@@H](O)[C@]2(O)[C@H]1OC(=O)N(C)C1CCC1)[C@H]1[C@@H](C[C@H]3C)C1(C)C [Compound 749, Ingenol 3-(N-cyclobutyl-N-methyl-carbamate)] | < 20 | > 350000
23 | C=CCN(C)C(=O)O[C@H]1C(C)=C[C@]23C(=O)[C@@H](C=C(CO)[C@@H](O)[C@]12O)[C@H]1[C@@H](C[C@H]3C)C1(C)C [Compound 750, Ingenol 3-(N-allyl-N-methyl-carbamate)] | < 20 | > 350000
